Experiments:
B16-F10 = test: Cytotoxicity against mouse B16-F10 cells incubated for 48 hrs by WST-8 assay; format: functional, cell-based; details: B16-F10, 48 h
HL-60 [1] = test: Cytotoxicity against human HL-60 cells incubated for 48 hrs by WST-8 assay; format: functional, cell-based; details: HL-60, 48 h
HeLa = test: Cytotoxicity against human HeLa cells incubated for 48 hrs by WST-8 assay; format: functional, cell-based
PC-12 = test: Neuroprotective activity against glutamate-induced neurotoxicity in rat PC-12 cells; format: functional, cell-based
HL-60 [2] = test: Cytotoxicity against human HL-60 cells; format: functional, cell-based
CCRF-CEM = test: Cytotoxicity against human CCRF-CEM cells; format: functional, cell-based
RAW264.7 [3] = test: Anti-inflammatory activity in LPS induced mouse RAW264.7 cells assessed as inhibition of NO production measured after 24 hrs by CCK-8 method; format: functional, cell-based; details: RAW264.7, 24 h
A549 = test: Cytotoxicity against human A549 cells incubated for 72 hrs by CCK8 assay; format: functional, cell-based; details: A549, 72 h
Bel-7402 = test: Cytotoxicity against human Bel-7402 cells incubated for 72 hrs by CCK8 assay; format: functional, cell-based; details: Bel-7402, 72 h
HL-60 [4] = test: Cytotoxicity against human HL-60 cells incubated for 72 hrs by CCK8 assay; format: functional, cell-based; details: HL-60, 72 h
HT-29 = test: Cytotoxicity against human HT-29 cells incubated for 72 hrs by CCK8 assay; format: functional, cell-based; details: HT-29, 72 h
Plasmodium falciparum = test: Antiplasmodial activity against Plasmodium falciparum; format: functional, organism-based
RAW264.7 [5] = test: Anti-inflammatory activity in LPS induced mouse RAW264.7 cells assessed as inhibition of NO production by MTT method; format: functional, cell-based
HL-60 [6] = test: Cytotoxicity against human HL-60 cells assessed as inhibition of cell growth; format: functional, cell-based

Q: What does the source list for C=C1C(=O)O[C@@H]2/C=C(\C)CC/C=C(/C(=O)OC)[C@H](OCC)[C@@H](OC(=O)[C@](C)(O)[C@H](C)OC(=O)/C3=C/CC/C(C)=C/[C@H]4OC(=O)C(=C)[C@@H]4[C@H](OC(=O)/C(C)=C\C)C3)[C@@H]12?
A: IC50 (B16-F10): 0.2 µM; IC50 (HL-60 [1]): 0.2 µM; IC50 (HeLa): 0.2 µM

Q: With C=C1CC[C@H]2C(=C)CC[C@@H]3[C@H](OC(=O)[C@]3(CC(C)=O)C[C@@H]3CC[C@H]4C(=C)CC[C@H]5C(=C)C(=O)O[C@@H]5[C@@H]34)[C@@H]12 as the compound, how does the EC50 (PC-12) read?
A: 2.11 µM

Q: C=C1C(=O)O[C@H]2C[C@H](C)C3=C(C[C@H]12)[C@]1(C)C[C@H]3C[C@@]12C(=O)O[C@@H]1C[C@H](C)C(CCC(C)=O)=CC[C@@H]12 was tested. Which IC50 (HL-60 [2]) did it give?
A: 7.5 µM

Q: With C=C1C(=O)O[C@H]2C[C@H](C)C3=C(C[C@H]12)[C@@]1(C)C[C@H]3C[C@@]12C(=O)O[C@@H]1C[C@@]3(C)[C@@H](O)C[C@@H](O)C(=C)[C@@H]3C[C@@H]12 as the compound, how does the IC50 (CCRF-CEM) read?
A: 0.14 µM

Q: C=C1C(=O)O[C@H]2C[C@H](C)[C@@]34C[C@@H](C[C@@]35C(=O)O[C@H]3CC(=C)[C@H]6CC[C@@](C)(O)[C@@H]6C[C@@H]35)C(C)=C4C[C@H]12 was tested. Which IC50 (CCRF-CEM) did it give?
A: 2.03 µM

Q: For C=C1C(=O)O[C@H]2[C@@H]1CCC1=C(C)[C@H]3CC1(C[C@@]31C(=O)O[C@H]3C[C@H](C)[C@@]45C[C@@]6(C(=O)O[C@@H]7C[C@H](C)C(CCC(C)=O)=CC[C@@H]76)[C@@H](C(C)=C4C[C@@H]31)C5OC(C)=O)[C@H]2C (stereo partly specified), which IC50 (RAW264.7 [3]) is on record?
A: 1.9 µM

Q: Which IC50 (CCRF-CEM) does the source give for C=C1C(=O)O[C@H]2C[C@H](C)[C@@]34C[C@@H](C[C@@]35C(=O)O[C@H]3C=C(C)[C@H]6CC[C@@](C)(O)[C@@H]6C[C@@H]35)C(C)=C4C[C@H]12 here?
A: 2.03 µM

Q: How did the IC50 (B16-F10) turn out when C=C1C(=O)O[C@H]2[C@H]1[C@H](OC(=O)[C@](C)(O)[C@H](C)OC(=O)/C1=C/CC/C(C)=C/[C@H]3OC(=O)C(=C)[C@@H]3[C@H](OC(=O)/C(C)=C\C)C1)[C@@H](OCC)/C(C(=O)OC)=C\CC[C@]1(C)O[C@@H]21 was run?
A: 0.2 µM

Q: What about the IC50 (HL-60 [1]) of the same compound?
A: 0.2 µM

Q: What about the IC50 (HeLa) of the same compound?
A: 0.2 µM

Q: For C=C1C(=O)O[C@H]2C[C@H](C)C3=C(C[C@H]12)[C@@]1(C)C[C@@H]3C[C@@]12C(=O)O[C@H]1C=C(C)[C@H]3CC[C@@](C)(O)[C@@H]3C[C@@H]12, which IC50 (CCRF-CEM) is on record?
A: 2.03 µM

Q: C=C1CC[C@H]2C(=C)C(=O)O[C@@H]2[C@@H]2[C@H]1[C@@H](C[C@@H]1C(=O)C3C4[C@H]1[C@H]1OC(=O)C(=C)[C@@H]1CC[C@@]4(O)CC[C@]31C(=O)C[C@H]3C(=C)CC[C@H]4C(=C)C(=O)O[C@@H]4[C@H]31)C(=O)[C@@]2(O)CC[C@@H]1C(=O)C[C@H]2C(=C)CC[C@H]3C(=C)C(=O)O[C@@H]3[C@@H]12 (stereo partly specified) was tested. Which IC50 (A549) did it give?
A: 2 µM

Q: What about the IC50 (Bel-7402) of the same compound?
A: 2 µM

Q: What about the IC50 (HL-60 [4]) of the same compound?
A: 2 µM

Q: And the IC50 (HT-29)?
A: 2 µM

Q: How did the IC50 (Plasmodium falciparum) turn out when C/C=C(\C)C(=O)O[C@@H]1CC([C@H](O)[C@]2(C)C=C3OC(=O)C4=C3[C@H]2[C@H]2OC(=O)[C@H](C)[C@@H]2[C@H](OC(=O)/C(C)=C/C)C4)=C2C(=O)C=C(C)[C@@H]2[C@H]2OC(=O)[C@H](C)[C@@H]21 was run?
A: 2 µM

Q: C=C1CC[C@H]2C(=C)CC[C@@H]3[C@H](OC(=O)[C@]3(CC(C)=O)C[C@@H]3C(=O)O[C@@H]4/C=C(/C)CC/C=C(/C)CC[C@@H]34)[C@@H]12 was tested. Which IC50 (RAW264.7 [5]) did it give?
A: 1.88 µM

Q: C=C1C(=O)O[C@H]2C[C@@H](C)C3=C(C[C@H]12)[C@@]1(C)C[C@@H]3C[C@@]12C(=O)O[C@@H]1C[C@@]3(C)[C@@H](O)C[C@@H](O)C(=C)[C@@H]3C[C@@H]12 was tested. Which IC50 (CCRF-CEM) did it give?
A: 0.14 µM

Q: Which results are given for C=C1CC[C@H]2C(=C)C(=O)O[C@@H]2[C@@H]2[C@H]1[C@@H](C[C@@H]1C(=O)C3C4[C@H]1[C@H]1OC(=O)C(=C)[C@@H]1CC[C@]4(O)CC[C@]31C(=O)C[C@H]3C(=C)CC[C@H]4C(=C)C(=O)O[C@@H]4[C@H]31)C(=O)[C@@]2(O)CC[C@@H]1C(=O)C[C@H]2C(=C)CC[C@H]3C(=C)C(=O)O[C@@H]3[C@@H]12 (stereo partly specified)?
A: IC50 (A549): 2 µM; IC50 (Bel-7402): 2 µM; IC50 (HL-60 [4]): 2 µM; IC50 (HT-29): 2 µM

Q: C[C@H](O)CC[C@H]1[C@@H]2C[C@H]3[C@@H](C[C@]12C)OC(=O)C31CC2(CO1)C(=O)O[C@@H]1C[C@]3(C)[C@@H](CC[C@@H](C)O)[C@@H]3C[C@@H]12 (stereo partly specified) was tested. Which IC50 (HL-60 [6]) did it give?
A: 8.7 µM

Q: Which IC50 (CCRF-CEM) does the source give for C=C1C(=O)O[C@H]2C[C@H](C)C3=C(C[C@H]12)[C@]1(C)C[C@@H]3C[C@@]12C(=O)O[C@@H]1C[C@@]3(C)[C@@H](O)C[C@@H](O)C(=C)[C@@H]3C[C@@H]12 here?
A: 0.14 µM

— ChEMBL document CHEMBL5244250, “Natural sesquiterpenoid oligomers: A chemical perspective” (Eur J Med Chem, 2020)
